Reference: US12521440B2, “Degradation of bruton's tyrosine kinase (BTK) by conjugation of BTK inhibitors with E3 ligase ligand and methods of use” (BeOne Medicines I GmbH, priority 2021, dated 2026)

What was measured:
BTK = molecular target: T1, BTK (Homo sapiens, UniProt Q06187); experiment: BTK degradation in TMD-8 cells (HTRF assay); assay type: cell-based; details: 6 h treatment, HTRF BTK degradation IC50 (DC50)
T1 construct: endogenous in cells; host or cells: TMD-8 cells
Method in brief: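 BTK levels measured by HTRF (665/620 nm) in lysates of TMD-8 cells after 6 h compound treatment, with antibody incubation overnight at room temperature. Dosing covered 8 points, 6-fold dilutions from 1 mM 500× stocks, 0.2% DMSO final. Four-parameter curve fitting gave DC50.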

HEK-293 cells = experiment: HEK-293 cytotoxicity detection (CellTiter-Glo); assay type: cell-based; details: Homo sapiens, 72 h incubation, read-out: HEK293
Method in brief: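 Cytotoxicity IC50 derived by four-parameter curve fitting of percent inhibition of CellTiter-Glo luminescence. Compounds tested at 8 doses in 4-fold steps, 0.2% DMSO, on HEK-293 cells for 72 h.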

T1 sequence (Q06187 whole entry): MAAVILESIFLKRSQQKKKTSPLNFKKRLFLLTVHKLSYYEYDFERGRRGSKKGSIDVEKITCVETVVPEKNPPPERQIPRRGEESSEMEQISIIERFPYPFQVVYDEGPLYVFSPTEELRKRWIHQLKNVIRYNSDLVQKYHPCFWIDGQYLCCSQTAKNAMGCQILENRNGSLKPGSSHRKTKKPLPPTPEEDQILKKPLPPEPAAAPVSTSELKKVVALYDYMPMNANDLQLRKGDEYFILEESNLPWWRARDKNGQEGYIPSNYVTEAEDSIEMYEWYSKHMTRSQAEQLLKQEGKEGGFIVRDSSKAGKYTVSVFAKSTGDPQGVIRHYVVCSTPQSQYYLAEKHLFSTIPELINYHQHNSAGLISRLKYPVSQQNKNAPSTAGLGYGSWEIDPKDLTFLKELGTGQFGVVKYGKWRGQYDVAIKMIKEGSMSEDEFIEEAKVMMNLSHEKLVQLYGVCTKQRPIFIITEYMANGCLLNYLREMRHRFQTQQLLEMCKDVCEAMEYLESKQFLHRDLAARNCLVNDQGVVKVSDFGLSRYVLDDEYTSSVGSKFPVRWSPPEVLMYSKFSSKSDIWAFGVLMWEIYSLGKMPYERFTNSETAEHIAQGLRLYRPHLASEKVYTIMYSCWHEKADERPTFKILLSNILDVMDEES

| SMILES | DC50 (BTK) | IC50 (HEK-293 cells) |
| --- | --- | --- |
| Cc1cc(-c2cc(Nc3ccc(N4CCN(C5CC6(CCN(c7ccc(N8CCC(=O)NC8=O)cc7)CC6)C5)CC4)cn3)ncn2)ccc1[C@@H](C)NC(=O)c1nc(C(C)(C)C)no1 [Example 43, (R)-3-(tert-butyl)-N-(1-(4-(6-((5-(4-(7-(4-(2,4-dioxotetrahydropyrimidin-1(2H)-yl)phenyl)-7-azaspiro[3.5]nonan-2-yl)piperazin-1-yl)pyridin-2-yl)amino)pyrimidin-4-yl)-2-methylphenyl)ethyl)-14-oxadiazole-5-carboxamide] | 2.99 nM | > 10000 nM |
| Cc1cc(-c2cc(Nc3ccc(N4CCC5(CCN(CC6CCN(c7ccc(N8CCC(=O)NC8=O)cc7)CC6)CC5)CC4)cn3)ncn2)ccc1[C@@H](C)NC(=O)c1nc(C(C)(C)C)no1 [Example 34, (R)-3-(tert-butyl)-N-(1-(4-(6-((5-(9-((1-(4-(2,4-dioxotetrahydropyrimidin-1(2H)-yl)phenyl)piperidin-4-yl)methyl)-3,9-diazaspiro [5.5]undecan-3-yl)pyridin-2-yl)amino)pyrimidin-4-yl)-2-methylphenyl)ethyl)-1,2,4-oxadiazole-5-carboxamide] | 1.88 nM | 891 nM |
| Cc1cc(-c2cc(Nc3ccc(N4CCN(CC5CCN(c6ccc(N7CCC(=O)NC7=O)cc6F)CC5)CC4)cc3)ncn2)c(F)cc1[C@@H](C)NC(=O)c1nc(C(C)(C)C)no1 [Example 3, (R)-3-(tert-butyl)-N-(1-(4-(6-((4-(4-((1-(4-(2,4-dioxotetrahydropyrimidin-1(2H)-yl)-2-fluorophenyl)piperidin-4-yl)methyl)piperazin-1-yl)phenyl)amino)pyrimidin-4-yl)-5-fluoro-2-methylphenyl)ethyl)-1,2,4-oxadiazole-5-carboxamide] | 104 nM | > 10000 nM |
| Cc1cc(-c2cc(Nc3cc(C)c(N4CCN(CC5CCN(c6ccc(N7CCC(=O)NC7=O)cc6)CC5)CC4)cn3)ncn2)ccc1[C@@H](C)NC(=O)c1nc(C(C)(C)C)no1 [Example 62] | 12.3 nM | > 10000 nM |
| Cc1cc(-c2cc(Nc3ccc(N4CCN(CC5CCN(c6ccc(N7CCC(=O)NC7=O)cc6)CC5)CC4)cn3)ncn2)c(F)cc1[C@@H](C)NC(=O)c1nc(C(C)(C)C)no1 [Example 8, (R)-3-(tert-butyl)-N-(1-(4-(6-((5-(4-((1-(4-(2,4-dioxotetrahydropyrimidin-1(2H)-yl)phenyl)piperidin-4-yl)methyl)piperazin-1-yl)pyridin-2-yl)amino)pyrimidin-4-yl)-5-fluoro-2-methylphenyl)ethyl)-1,2,4-oxadiazole-5-carboxamide] | 1.48 nM | > 10000 nM |
| Cc1cc(CCN2CCN(c3ccc(Nc4cc(-c5ccc([C@@H](C)NC(=O)c6nc(C(C)(C)C)no6)c(C)c5)ncn4)nc3)CC2)ccc1C1CCC(=O)NC1=O (stereo partly drawn) [Example 48, 3-(tert-butyl)-N-((1R)-1-(4-(6-((5-(4-(4-(2,6-dioxopiperidin-3-yl)-3-methylphenethyl)piperazin-1-yl)pyridin-2-yl)amino)pyrimidin-4-yl)-2-methylphenyl)ethyl)-1,2,4-oxadiazole-5-carboxamide] | 1.44 nM | > 10000 nM |
| Cc1cc(-c2cc(Nc3ccc(N4CCN(CC5CCN(c6ccc(N7CCC(=O)NC7=O)cc6)CC5)CC4)cc3)ncn2)c(F)cc1[C@@H](C)NC(=O)c1nc(C(C)(C)C)no1 [Example 1, (R)-3-(tert-butyl)-N-(1-(4-(6-((4-(4-((1-(4-(2,4-dioxotetrahydropyrimidin-1(2H)-yl)phenyl)piperidin-4-yl)methyl)piperazin-1-yl)phenyl)amino)pyrimidin-4-yl)-5-fluoro-2-methylphenyl)ethyl)-1,2,4-oxadiazole-5-carboxamide] | 21.3 nM | > 10000 nM |
| Cc1cc(-c2cc(Nc3cc(F)c(N4CCN(CC5CCN(c6ccc(N7CCC(=O)NC7=O)cc6)CC5)CC4)cn3)ncn2)ccc1[C@@H](C)NC(=O)c1nc(C(C)(C)C)no1 [Example 65] | 3.7 nM | > 10000 nM |
| Cc1cc(-c2cc(Nc3ccc(N4CCN(CC5CN(c6ccc(N7CCC(=O)NC7=O)cc6)C5)CC4)cn3)ncn2)ccc1[C@@H](C)NC(=O)c1nc(C(C)(C)C)no1 [Example 22, (R)-3-(tert-butyl)-N-(1-(4-(6-((5-(4-((1-(4-(2,4-dioxotetrahydropyrimidin-1(2H)-yl)phenyl)azetidin-3-yl)methyl)piperazin-1-yl)pyridin-2-yl)amino)pyrimidin-4-yl)-2-methylphenyl)ethyl)-1,2,4-oxadiazole-5-carboxamide] | 1.58 nM | > 10000 nM |
| Cc1cc(-c2cc(Nc3ccc(N4CC(CN5CCN(c6ccc(N7CCC(=O)NC7=O)cc6)CC5)C4)cn3)ncn2)ccc1[C@@H](C)NC(=O)c1nc(C(C)(C)C)no1 [Example 20, (R)-3-(tert-butyl)-N-(1-(4-(6-((5-(3-((4-(4-(2,4-dioxotetrahydropyrimidin-1(2H)-yl)phenyl)piperazin-1-yl)methyl)azetidin-1-yl)pyridin-2-yl)amino)pyrimidin-4-yl)-2-methylphenyl)ethyl)-1,2,4-oxadiazole-5-carboxamide] | 1.23 nM | > 10000 nM |
| Cc1cc(-c2cc(Nc3ccc(N4CCN(CCc5cc(F)c(C6CCC(=O)NC6=O)c(F)c5)CC4)cn3)ncn2)ccc1[C@@H](C)NC(=O)c1nc(C(C)(C)C)no1 (stereo partly drawn) [Example 45, 3-(tert-butyl)-N-((1R)-1-(4-(6-((5-(4-(4-(2,6-dioxopiperidin-3-yl)-3,5-difluorophenethyl)piperazin-1-yl)pyridin-2-yl)amino)pyrimidin-4-yl)-2-methylphenyl)ethyl)-1,2,4-oxadiazole-5-carboxamide] | 1.75 nM | > 10000 nM |
| Cc1cc(-c2cc(Nc3ccc(N4CCN(C(=O)C5CN(c6cc(F)c(C7CCC(=O)NC7=O)c(F)c6)C5)CC4)cn3)ncn2)ccc1[C@@H](C)NC(=O)c1nc(C(C)(C)C)no1 (stereo partly drawn) [Example 27, 3-(tert-butyl)-N-((1R)-1-(4-(6-((5-(4-(1-(4-(2,6-dioxopiperidin-3-yl)-3,5-difluorophenyl)azetidine-3-carbonyl)piperazin-1-yl)pyridin-2-yl)amino)pyrimidin-4-yl)-2-methylphenyl)ethyl)-1,2,4-oxadiazole-5-carboxamide] | 3.57 nM | > 10000 nM |
| Cc1cc(-c2cc(Nc3ccc(N4CCN(CC5CN(c6ccc(C7CCC(=O)NC7=O)cc6)C5)CC4)cn3)ncn2)ccc1[C@@H](C)NC(=O)c1nc(C(C)(C)C)no1 (stereo partly drawn) [Example 19, 3-(tert-butyl)-N-((1R)-1-(4-(6-((5-(4-((1-(4-(2,6-dioxopiperidin-3-yl)phenyl)azetidin-3-yl)methyl)piperazin-1-yl)pyridin-2-yl)amino)pyrimidin-4-yl)-2-methylphenyl)ethyl)-1,2,4-oxadiazole-5-carboxamide] | 2.51 nM | > 10000 nM |
| Cc1cc(-c2cc(Nc3ccc(N4CCN(CC5CCN(c6ccc(N7CCC(=O)NC7=O)cc6)CC5)CC4)c(C)n3)ncn2)ccc1[C@@H](C)NC(=O)c1nc(C(C)(C)C)no1 [Example 61, (R)-3-(tert-butyl)-N-(1-(4-(6-((5-(4-((1-(4-(2,4-dioxotetrahydropyrimidin-1(2H)-yl)phenyl)piperidin-4-yl)methyl)piperazin-1-yl)-6-methylpyridin-2-yl)amino)pyrimidin-4-yl)-2-methylphenyl)ethyl)-1,2,4-oxadiazole-5-carboxamide] | 1.65 nM | > 10000 nM |
| Cc1cc(-c2cc(Nc3ccc(N4CCN(C(=O)Cc5cccc(N6CCC(=O)NC6=O)c5)CC4)cn3)ncn2)ccc1[C@@H](C)NC(=O)c1nc(C(C)(C)C)no1 [Example 56, (R)-3-(tert-butyl)-N-(1-(4-(6-((5-(4-(2-(3-(2,4-dioxotetrahydropyrimidin-1(2H)-yl)phenyl)acetyl)piperazin-1-yl)pyridin-2-yl)amino)pyrimidin-4-yl)-2-methylphenyl)ethyl)-1,2,4-oxadiazole-5-carboxamide] | 9.9 nM | > 10000 nM |
| Cc1cc(-c2cc(Nc3ccc(N4CCN(C(=O)C5CN(c6ccc(N7CCC(=O)NC7=O)cc6)C5)CC4)cn3)ncn2)ccc1[C@@H](C)NC(=O)c1nc(C(C)(C)C)no1 [Example 25, (R)-3-(tert-butyl)-N-(1-(4-(6-((5-(4-(1-(4-(2,4-dioxotetrahydropyrimidin-1(2H)-yl)phenyl)azetidine-3-carbonyl)piperazin-1-yl)pyridin-2-yl)amino)pyrimidin-4-yl)-2-methylphenyl)ethyl)-1,2,4-oxadiazole-5-carboxamide] | 0.935 nM | > 10000 nM |
| Cc1cc(-c2cc(Nc3ccc(N4CCN(C5CN(c6ccc(N7CCC(=O)NC7=O)cc6)C5)CC4)cn3)ncn2)ccc1[C@@H](C)NC(=O)c1nc(C2(C)CC2)no1 [Example 12, (R)—N-(1-(4-(6-((5-(4-(1-(4-(2,4-dioxotetrahydropyrimidin-1(2H)-yl)phenyl)azetidin-3-yl)piperazin-1-yl)pyridin-2-yl)amino)pyrimidin-4-yl)-2-methylphenyl)ethyl)-3-(1-methylcyclopropyl)-1,2,4-oxadiazole-5-carboxamide] | 1.28 nM | > 10000 nM |
| Cc1cc(-c2cc(Nc3ccc(N4CCN(CC5CCN(c6ccc(N7CCC(=O)NC7=O)cc6)CC5)CC4)cn3)ncn2)ccc1[C@@H](C)NC(=O)c1nc(C2(C)CC2)no1 [Example 11, (R)—N-(1-(4-(6-((5-(4-((1-(4-(2,4-dioxotetrahydropyrimidin-1(2H)-yl)phenyl)piperidin-4-yl)methyl)piperazin-1-yl)pyridin-2-yl)amino)pyrimidin-4-yl)-2-methylphenyl)ethyl)-3-(1-methylcyclopropyl)-1,2,4-oxadiazole-5-carboxamide] | 1.21 nM | > 10000 nM |
